{"source": "patent US7566737B2", "about": "(Genfit, priority 2002, dated 2009)", "key": {"LDL": {"system": "LDL", "assay": "Protection against LDL oxidation by copper (conjugated diene formation)", "format": "biochemical", "conditions": "for antioxidant properties on LDL oxidation by copper (in words): FIGS. 1-1 to 1-14; for lag phase of conjugated diene formation / rate of conjugated diene formation: 10^−4M", "protocol": "LDL oxidation is an important alteration and plays a predominant role in the establishment and development of atherosclerosis (Jurgens G et al., 1987). […] Unless otherwise indicated, the reagents were from Sigma (St Quentin, France). LDL were prepared according to the method described by (Havel R J et al., 1955). The solutions of test compounds were prepared at 10^−2 M concentration in bicarbonate buffer (pH 9) and diluted in PBS to obtain final concentrations ranging from 0.1 to 100 μM for a total ethanol concentration of […]. Prior to oxidation, EDTA was removed from the LDL preparation by dialysis. Oxidation then took place at 30° C. by addition of 100 μl of 16.6 μM CuSO4 solution to 160 μL of LDL (125 μg protein/ml) and 20 μl of a test compound solution. The formation of dienes, the species under observation, was followed by measuring optical density at 234 nm in the samples treated with the compounds but in the presence or absence of copper. Optical density at 234 nm was measured every 10 minutes for 8 hours in a thermostated spectrophotometer (Tecan Ultra 380). The compounds were considered to have antioxidant activity when they induced a longer lag phase and reduced the rate of oxidation and the amount of dienes formed in comparison with the control sample."}, "[1]": {"system": "hApoE2 Knock-in transgenic mice", "assay": "Effects on triglycerides and cholesterol metabolism in vivo", "parameters": "species or system mouse", "protocol": "Treatment of animals: hApoE2 knock-in transgenic mice were kept on a 12-hour light/dark cycle at a constant temperature of 20±3° C. After a 1 week acclimation, mice were separated in groups of 6 animals selected such that the distribution of their body weight and plasmatic lipid levels determined before the experiment were uniform. The test compounds were suspended in carboxymethylcellulose and administered by intragastric gavage at the indicated doses, once a day for 7 or 8 days. Animals had access to food and water ad libitum. At the end of the experiment the animals were weighed and sacrificed under anesthesia. Blood was collected on EDTA. Plasma was prepared by centrifugation at 3000 rpm for 20 minutes. Organs were harvested, frozen in liquid nitrogen and stored at −80° C. for subsequent analysis.\nMeasurement of serum lipids: Serum lipid concentrations (total cholesterol and triglycerides) were determined by a colorimetric assay (Boehringer, Mannheim, Germany) according to the supplier's instructions."}, "human PPARα": {"molecular_target": "T1, human PPARα (Homo sapiens, UniProt Q07869)", "T1 construct": "expressed in transfected cells; host or cells: RK13 or COS-7", "T1 sequence (Q07869 239-466 limits assumed)": "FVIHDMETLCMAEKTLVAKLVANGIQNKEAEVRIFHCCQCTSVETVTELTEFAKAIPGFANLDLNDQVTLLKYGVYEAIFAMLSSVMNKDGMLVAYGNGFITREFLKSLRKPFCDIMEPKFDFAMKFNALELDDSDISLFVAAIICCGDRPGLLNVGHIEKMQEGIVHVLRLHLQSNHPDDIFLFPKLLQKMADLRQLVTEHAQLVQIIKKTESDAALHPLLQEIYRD", "assay": "PPARα/Gal4 transactivation system", "format": "cell-based", "conditions": "for maximum induction factor: at the 10 or 1 μm concentrations", "protocol": "PPAR activation was tested in vitro in RK13 or COS-7 fibroblast cell lines by measuring the transcriptional activity of chimeras composed of the DNA binding domain of the yeast Gal4 transcription factor and the ligand binding domain of the different PPARs. These latter results were then confirmed in cell lines according to the following protocols.\nCulture protocols: RK13 were from ECACC (Porton Down, UK) and were grown in DMEM medium supplemented with 10% (V/V) fetal calf serum, 100 U/ml penicillin (Gibco, Paisley, UK) and 2 mM L-glutamine (Gibco, Paisley, UK). COS-7 cells were from ATCC and were grown in DMEM medium supplemented with 10% (V/V) fetal calf serum, 1% penicillin/streptomycine (Biochrom, AG), 1% of amino acids (Gibco) and 1% sodium pyruvate (Gibco).\nThe culture medium was changed every two days. Cells were kept at 37° C. in a humidified 95% air/5% CO2 atmosphere.\nDescription of plasmids used for transfection: The plasmids Gal4(RE)_TkpGL3, pGal4-hPPARα, pGal4-hPPARγ, pGal4-hPPARδ and pGal4-φ have been described in the literature (Raspe E et al., 1999). The pGal4-hPPARα, pGal4-hPPARγ and pGal4-hPPARδ constructs were obtained by cloning into the pGal4-φ vector PCR-amplified DNA fragments corresponding to the DEF domains of the human PPARs nuclear receptors.\nTransfection of RK13: RK13 cells were seeded in 24-well culture dishes at 5×10^4 cells/well and transfected for 2 hours with the reporter plasmid Gal4(RE)_TkpGL3 (50 ng/well), the expression vectors pGal4-φ, pGal4-hPPARα, pGal4-hPPARγ and pGal-hPPARδ (100 ng/well) and the transfection efficiency control vector pRL-CMV (1 ng/well) according to the previously described protocol (Raspe E, Madsen L, Lefebvre A M, Leitersdorf I, Gelman L, Peinado-Onsurbe J, Dallongeville J, Fruchart J C, Berge R and Staels B, 1999), then incubated for 36 hours with the test compounds. RK13 cells were incubated with the different compounds at concentrations of 10, 30 and 100 μM or 1, 10 and 100 μM for 24 hours. At the end of the experiment, the cells were lysed (Gibco, Paisley, UK) and luciferase activity was determined with a Dual-Luciferase™ Reporter Assay System kit (Promega, Madison, Wis., USA) according to the supplier's instructions. The protein content of the cell extracts was then measured with the Bio-Rad Protein Assay (Bio-Rad, Munich, Germany) as directed by the supplier.\nTransfection of COS7: Cells in suspension are transfected, in the presence of 10% (V/V) fetal calf serum, with 150 ng of DNA per well with a pGal4-PPAR/Gal4(RE)_TkpGL3 ratio of 1/10. Cells are then seeded in 96 well plates (4×10^4 cells/well) and incubated for 24 hours at 37° C. Activation with compounds is performed on 24 hours at 37° C. in culture medium without serum. At the end of the activation period, cells are lysed and luciferase activity is determined, using the Steady Glow Luciferase Kit (Promega), according to the supplier's instructions."}, "[2]": {"system": "Human normal primary fibroblasts", "assay": "Antioxidant properties on cell cultures (carboxy-H2DCFDA fluorescence, AAPH stress), fibroblasts", "format": "cell-based", "conditions": "compounds at 25 μM for 24 h, AAPH 750 μM", "protocol": "(§1) The reduction in the intensity of the emitted fluorescence signal was determined in cells treated with the compounds in the following manner.\n(§2) Prior to stress the cells with an oxidative agent such as AAPH (CAS number 2997-92-4), cells are incubated with compounds of interest at 25 μM for 24 h. Then the culture medium is discarded and cells are rinsed two times with PBS. Cells are then incubated 30 min at 37° C. with a cell-permeant indicator for reactive oxygen species that is nonfluorescent until the acetate groups are removed by intracellular esterases and oxidation occurs within the cell 5-(and-6)-carboxy-2′,7′-dichlorodihydrofluorescein diacetate (carboxy-H2DCFDA). The probes are prepared in PBS and incubated at the final concentration of 25 μM. After the incubation with the probe, cells are rinsed and incubated another 30 min with the oxidative solution containing AAPH at 750 μM in culture medium without phenol red and serum.\n(§3) The fluorescence is then measured with a fluorimeter with the following wavelength, […].\n(§4) Two different cell types have been tested with the inventive compounds. Human normal primary fibroblasts and HaCat cells which are a human keratinocyte cell line."}, "HaCat cells": {"system": "HaCat cells", "assay": "Antioxidant properties on cell cultures (carboxy-H2DCFDA fluorescence, AAPH stress), keratinocytes", "format": "cell-based, human", "conditions": "compounds at 25 μM for 24 h, AAPH 750 μM", "protocol": "as §1, §2, §3, §4"}, "[3]": {"conditions": "FIG. 1-9, copper alone 80 minutes"}, "[4]": {"conditions": "FIG. 1-12, copper alone 120 minutes"}}}
{"smiles": "COc1cc(/C=C/C(=O)c2ccccc2O)cc(OC)c1OC(C)(C)C(=O)O", "note": "[Compound 5, 1-[2-hydroxyphenyl]-3-[3,5-dimethoxy-4-carboxydimethylmethyloxyphenyl]prop-2-en-1-one]", "values": [{"measurement": "antioxidant properties on LDL oxidation by copper (in words)", "setting": "LDL", "value": "antioxidant properties"}]}
{"smiles": "COc1cc(/C=C/C(=O)c2ccc(Cl)cc2O)cc(OC)c1OC(C)(C)C(=O)O", "note": "[Compound 6, 1-[2-hydroxy-4-chlorophenyl]-3-[3,5-dimethoxy-4-carboxydimethylmethyloxyphenyl]prop-2-en-1-one]", "values": [{"measurement": "antioxidant properties on LDL oxidation by copper (in words)", "setting": "LDL", "value": "antioxidant properties"}]}
{"smiles": "Cc1cc(/C=C/C(=O)c2ccc(Cl)cc2O)cc(C)c1OC(C)(C)C(=O)O", "note": "[Compound 7, 1-[2-hydroxy-4-chlorophenyl]-3-[3,5-dimethyl-4-carboxydimethylmethyloxyphenyl]prop-2-en-1-one]", "values": [{"measurement": "antioxidant properties on LDL oxidation by copper (in words)", "setting": "LDL", "value": "antioxidant properties"}, {"measurement": "cholesterol in lipoparticle subfraction (exclusion chromatography)", "setting": "[1]; gavage 200 mg/kg for 7 days", "value": "decreased"}, {"measurement": "plasma concentration of cholesterol", "setting": "[1]; gavage 200 mg/kg for 7 days", "value": "decrease"}, {"measurement": "plasma concentration of triglycerides", "setting": "[1]; gavage 200 mg/kg for 7 days", "value": "decrease"}, {"measurement": "triglycerides in lipoparticle subfraction (exclusion chromatography)", "setting": "[1]; gavage 200 mg/kg for 7 days", "value": "decreased"}, {"measurement": "induction factor (luminescent signal relative to untreated cells)", "setting": "human PPARα; 30 μM", "value": 50}]}
{"smiles": "Cc1cc(/C=C/C(=O)c2ccccc2O)cc(C)c1OC(C)(C)C(=O)O", "note": "[Compound 11, 1-[2-hydroxyphenyl]-3-[3,5-dimethyl-4-carboxydimethylmethyloxyphenyl]prop-2-en-1-one]", "values": [{"measurement": "induction factor (luminescent signal relative to untreated cells)", "setting": "human PPARα; 100 μM", "value": 10}]}
{"smiles": "Cc1cc(/C=C/C(=O)c2ccc(Br)cc2O)cc(C)c1OC(C)(C)C(=O)O", "note": "[Compound 25, 1-[2-hydroxy-4-bromophenyl]-3-[3,5-dimethyl-4-carboxydimethylmethyloxyphenyl]prop-2-en-1-one]", "values": [{"measurement": "lag phase of conjugated diene formation", "setting": "LDL; FIG. 1-7, copper alone 82 minutes", "value": 120, "unit": "min"}, {"measurement": "maximum amount of conjugated dienes formed", "setting": "LDL; FIG. 1-8, copper alone 393", "value": "378 nmol per mg of LDL"}]}
{"smiles": "COc1ccccc1C(=O)/C=C/c1cc(C)c(OC(C)(C)C(=O)O)c(C)c1", "note": "[Compound 31, 1-[2-methoxyphenyl]-3-[3,5-dimethyl-4-carboxydimethylmethyloxyphenyl]prop-2-en-1-one]", "values": [{"measurement": "lag phase of conjugated diene formation", "setting": "LDL; [3]", "value": 139, "unit": "min"}, {"measurement": "rate of conjugated diene formation", "setting": "LDL; FIG. 1-10, copper alone 1.9", "value": "1.6 nmol/min/mg of LDL"}, {"measurement": "induction factor (luminescent signal relative to untreated cells)", "setting": "human PPARα; 10 μM", "value": 15.5}]}
{"smiles": "Cc1cc(-c2cc(=O)c3ccc(Cl)cc3o2)cc(C)c1OC(C)(C)C(=O)O", "note": "[Compound 35, 2-(3,5-dimethyl-4-carboxydimethylmethyloxyphenyl)-7-chloro-4H-1-benzopyran-4-one]", "values": [{"measurement": "lag phase of conjugated diene formation", "setting": "LDL; [3]", "value": 149, "unit": "min"}, {"measurement": "rate of conjugated diene formation", "setting": "LDL; FIG. 1-10, copper alone 1.9", "value": "1.5 nmol/min/mg of LDL"}]}
{"smiles": "COc1cc(Cl)ccc1C(=O)/C=C/c1cc(C)c(OC(C)(C)C(=O)O)c(C)c1", "note": "[Compound 37, 1-[2-methyloxy-4-chlorophenyl]-3-[3,5-dimethyl-4-carboxydimethylmethyloxyphenyl]prop-2-en-1-one]", "values": [{"measurement": "lag phase of conjugated diene formation", "setting": "LDL; [4]", "value": 196, "unit": "min"}, {"measurement": "rate of conjugated diene formation", "setting": "LDL; FIG. 1-13, copper alone 1.8", "value": "1.49 nmol/min/mg of LDL"}, {"measurement": "maximum amount of conjugated dienes formed", "setting": "LDL; FIG. 1-14, copper alone 372", "value": "338 nmol per mg of LDL"}, {"measurement": "maximum induction factor", "setting": "human PPARα", "value": 27}]}
{"smiles": "CCCCCCCc1ccc(C(=O)/C=C/c2cc(C)c(OC(C)(C)C(=O)OC(C)(C)C)c(C)c2)cc1", "note": "[Compound 38, 1-[4-heptylphenyl]-3-[3,5-dimethyl-4-tertbutyloxycarbonyldimethylmethyloxyphenyl]prop-2-en-1-one]", "values": [{"measurement": "lag phase of conjugated diene formation", "setting": "LDL; [4]", "value": 284, "unit": "min"}, {"measurement": "rate of conjugated diene formation", "setting": "LDL; FIG. 1-13, copper alone 1.8", "value": "0.71 nmol/min/mg of LDL"}, {"measurement": "maximum amount of conjugated dienes formed", "setting": "LDL; FIG. 1-14, copper alone 372", "value": "244 nmol per mg of LDL"}, {"measurement": "maximum induction factor", "setting": "human PPARα", "value": 22}]}
{"smiles": "CCCCCCOc1ccccc1C(=O)/C=C/c1cc(C)c(OC(C)(C)C(=O)O)c(C)c1", "note": "[Compound 82, 1-[2-hexyloxyphenyl]-3-[3,5-dimethyl-4-carboxydimethylmethyloxyphenyl]prop-2-en-1-one]", "values": [{"measurement": "plasma cholesterol", "setting": "[1]; 50 mg/kg/day for 7 or 8 days, FIGS. 4-13, 4-15, 4-17, 4-19", "value": "decrease"}, {"measurement": "plasma triglycerides", "setting": "[1]; 50 mg/kg/day for 7 or 8 days, FIGS. 4-14, 4-16, 4-18, 4-20", "value": "decrease"}]}
{"smiles": "Cc1c(C)c2c(c(C)c1O)CCC(C)(C(=O)O)O2", "note": "(stereo not shown) [Trolox, reference compound]", "values": [{"measurement": "% of oxidative reduction versus control cells", "setting": "[2]", "value": 60, "unit": "%"}, {"measurement": "% of oxidative reduction versus control cells", "setting": "HaCat cells", "value": 46, "unit": "%"}]}
